Data from publication PMC6541369, “Stereo- and regioselective hydroboration of 1-exo-methylene pyranoses: discovery of aryltriazolylmethyl C-galactopyranosides as selective galectin-1 inhibitors” (Beilstein Journal of Organic Chemistry, 2019).
Where “and” joins values, the source holds several entries; their conditions need not be identical. Identical values can stand only once. Like-named read-outs stand apart in the source and are kept apart here.

How the values were obtained:
Human galectin-1 [1] = target: T1, Human galectin-1 (Homo sapiens, UniProt P09382); test: competitive fluorescence polarization assay, galectin-1; format: binding; settings: for Kd: galectin-1 0.5 µM, fluorescent probe 20 nM, read-out: Dissociation constant KD ± SEM, galectin-1
T1 construct: made in house
Procedure: Galectin-1, -3, -4C (C-terminal CRD), -4N (N-terminal CRD), -7, -8C, -8N, -9C, and -9N affinities for (aryltriazolyl)methyl galactopyranosyls 1a–n were determined in a competitive fluorescence polarization titration assay [[…]].
(§1) Human galectin-1 [36] and galectin-3 [37] were expressed and purified as earlier described. Fluorescence polarization experiments were performed on a PheraStarFS plate reader with software PHERAstar Mars version 2.10 R3 (BMG, Offenburg, Germany). Specific experimental conditions were a galectin-1 concentration of 0.5 µM together with the fluorescent probe (3,3’-dideoxy-3-[4-(fluorescein-5-ylcarbonylaminomethyl)-1H-1,2,3-triazol-1-yl]-3’-(3,5-dimethoxybenzamido)-1,1’-sulfanediyl-di-β-D-galactopyranoside) concentration of 20 nM and a galectin-3 concentration of 0.2 µM together with the fluorescent probe (3,3’-dideoxy-3-[4-(fluorescein-5-ylcarbonylaminomethyl)-1H-1,2,3-triazol-1-yl]-3’-(3,5-dimethoxybenzamido)-1,1’-sulfanediyl-di-β-D-galactopyranoside) concentration of 20 nM, respectively. […] Dissociation constants average and SEM were calculated from two to eight single point measurements showing between 20–80% inhibition.

galectin-3 [2] = target: T2, galectin-3 (Homo sapiens, UniProt P17931); test: competitive fluorescence polarization assay, galectin-3; format: binding; settings: galectin-3 0.2 µM, fluorescent probe 20 nM; for Kd: read-out: Dissociation constant KD ± SEM, galectin-3
T2 construct: made in house
Procedure: Galectin-1, -3, -4C (C-terminal CRD), -4N (N-terminal CRD), -7, -8C, -8N, -9C, and -9N affinities for (aryltriazolyl)methyl galactopyranosyls 1a–n were determined in a competitive fluorescence polarization titration assay [[…]]. Compounds 1a–n had millimolar or higher affinities for all galectins except for galectins-1 and -3. […] Of particular interest is the different difluorinated aryls 1e–g, which show a reversed selectivity pattern. They display twofold preference for galectin-3 (1g), but their poor affinities limit their use as effective galectin-3 inhibitors. […] Monosaccharide derivatives with somewhat higher affinity for galectin-1 are known; dissociation constants down to 62 µM and selectivity of 8 over galectin-3 [34]. However, these inhibitors are larger and carry double modifications with an anomeric thiophenyl aglycon combined with a heteroaryltriazole moiety at galactose C3 that both form affinity and selectivity-enhancing interactions with galectin-1. Unfortunately, attempts to combine the anomeric 4-fluorophenyltriazolylmethyl moiety of compound 1b with such a galactose C3-thiazolyltriazole substituent reported to enhance affinity for galectin-1 [34] failed in our hands, why other additional substituents to combine with the 4-fluorophenyltriazolylmethyl moiety of compound 1b remain to be discovered.
as §1

Human galectin-1 [3] = target: T1, Human galectin-1; set-up: method as in PMID 15889175; settings: reference compounds; read-out: Dissociation constant KD, galectin-1; cited from earlier work
galectin-3 [4] = target: T2, galectin-3; set-up: method as in PMID 15889175; settings: reference compounds; read-out: Dissociation constant KD, galectin-3; cited from earlier work
[5] = ratio of galectin-3 KD to galectin-1 KD

T1 sequence (P09382 whole entry): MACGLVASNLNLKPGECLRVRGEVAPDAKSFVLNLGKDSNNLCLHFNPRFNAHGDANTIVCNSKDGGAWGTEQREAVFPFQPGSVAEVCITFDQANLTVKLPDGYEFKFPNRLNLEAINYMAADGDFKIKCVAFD
T2 sequence (P17931 whole entry): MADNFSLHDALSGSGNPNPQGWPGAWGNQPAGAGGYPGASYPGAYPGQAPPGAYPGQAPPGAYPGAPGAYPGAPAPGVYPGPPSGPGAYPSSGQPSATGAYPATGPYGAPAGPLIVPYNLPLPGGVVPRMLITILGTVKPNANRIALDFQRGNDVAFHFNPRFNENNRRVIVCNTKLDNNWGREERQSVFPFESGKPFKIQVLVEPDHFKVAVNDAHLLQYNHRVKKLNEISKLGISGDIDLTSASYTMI

Row | Kd (Human galectin-1 [1]) [µM] | Selectivity Galectin-1/3 (Human galectin-1 [1]; [5]) | Dissociation constant KD ± SEM, galectin-3 (galectin-3 [2]) | Kd (galectin-3 [2]) [µM] | Selectivity Galectin-1/3 (Human galectin-1 [1]; reference compounds, ratio from KD values of ref 35) | Structure (SMILES) | Kd (Human galectin-1 [3]) [µM] | Kd (galectin-3 [4]) [µM]
1 |  |  |  |  | 1.2 | CO[C@@H]1O[C@H](CO)[C@@H](O[C@@H]2O[C@H](CO)[C@H](O)[C@H](O)[C@H]2O)[C@H](O)[C@H]1O [compound 12, methyl β-lactoside] | 190 | 220
2 | 500 ± 59 | 1.4 |  | 700 ± 52 |  | OC[C@H]1O[C@H](Cn2cc(-c3ccc(OC(F)(F)F)cc3)nn2)[C@H](O)[C@@H](O)[C@H]1O [1j, 1,2-Dideoxy-1-[4-(4-trifluoromethoxyphenyl)-1H-1,2,3-triazol-1-yl]-β-D-galactoheptulose] |  | 
3 | 240 ± 61 | 3.5 |  | 830 ± 38 |  | OC[C@H]1O[C@H](Cn2cc(-c3ccc(C(F)(F)F)cc3)nn2)[C@H](O)[C@@H](O)[C@H]1O [1k, 1,2-Dideoxy-1-[4-(4-trifluoromethylphenyl)-1H-1,2,3-triazol-1-yl]-β-D-galactoheptulose] |  | 
4 | 1500 ± 290 | 1.1 |  | 1700 ± 190 |  | OC[C@H]1O[C@H](Cn2cc(-c3ccc4ccccc4c3)nn2)[C@H](O)[C@@H](O)[C@H]1O [1n, 1,2-Dideoxy-1-(4-naphth-2-yl-1H-1,2,3-triazol-1-yl)-β-D-galactoheptulose] |  | 
5 | 180 ± 20 | 2.6 |  | 470 ± 95 |  | OC[C@H]1O[C@H](Cn2cc(-c3cccc4ccccc34)nn2)[C@H](O)[C@@H](O)[C@H]1O [1l, 1,2-Dideoxy-1-(4-naphth-1-yl-1H-1,2,3-triazol-1-yl)-β-D-galactoheptulose] |  | 
6 | 710 ± 12 | 1.7 |  | 1200 ± 11 |  | OC[C@H]1O[C@@H](Cn2cc(-c3ccc(-c4ccccc4)cc3)nn2)[C@H](O)[C@@H](O)[C@H]1O [1m, 1,2-Dideoxy-1-[4-(4-biphenyl)-1H-1,2,3-triazol-1-yl]-β-D-galactoheptulose] |  | 
7 | 990 ± 23 | >3 | undetectable | > 3000 |  | Cc1cccc(-c2cn(C[C@H]3O[C@H](CO)[C@H](O)[C@H](O)[C@H]3O)nn2)c1 [1i, 1,2-Dideoxy-1-[4-(3-methylphenyl)-1H-1,2,3-triazol-1-yl]-β-D-galactoheptulose] |  | 

Continued, molecule first:

Row | Structure (SMILES) | Kd (Human galectin-1 [1]) [µM] | Selectivity Galectin-1/3 (Human galectin-1 [1]; [5]) | Dissociation constant KD ± SEM, galectin-3 (galectin-3 [2]) | Kd (galectin-3 [2]) [µM] | Selectivity Galectin-1/3 (Human galectin-1 [1]; reference compounds, ratio from KD values of ref 35) | Kd (Human galectin-1 [3]) [µM] | Kd (galectin-3 [4]) [µM]
8 | Cc1ccc(-c2cn(C[C@H]3O[C@H](CO)[C@H](O)[C@H](O)[C@H]3O)nn2)cc1 [1h, 1,2-Dideoxy-1-[4-(4-methylphenyl)-1H-1,2,3-triazol-1-yl]-β-D-galactoheptulose] | 1000 ± 130 | >3 | undetectable | > 3000 |  |  | 
9 | OC[C@H]1O[C@H](Cn2cc(-c3ccccc3)nn2)[C@H](O)[C@@H](O)[C@H]1O [1a, 1,2-Dideoxy-1-(4-phenyl-1H-1,2,3-triazol-1-yl)-β-D-galactoheptulose] | 600 ± 48 | 1.5 |  | 870 ± 37 |  |  | 
10 | OC[C@H]1O[C@H](Cn2cc(-c3cc(F)cc(F)c3)nn2)[C@H](O)[C@@H](O)[C@H]1O [1f, 1,2-Dideoxy-1-[4-(3,5-difluorophenyl)-1H-1,2,3-triazol-1-yl]-β-D-galactoheptulose] | 1100 ± 43 | 0.7 |  | 790 ± 48 |  |  | 
11 | OC[C@H]1O[C@H](Cn2cc(-c3cccc(F)c3)nn2)[C@H](O)[C@@H](O)[C@H]1O [1c, 1,2-Dideoxy-1-[4-(3-fluorophenyl)-1H-1,2,3-triazol-1-yl]-β-D-galactoheptulose] | 1200 ± 120 | 0.6 |  | 720 ± 64 |  |  | 
12 | OC[C@H]1O[C@H](Cn2cc(-c3ccc(F)c(F)c3)nn2)[C@H](O)[C@@H](O)[C@H]1O [1e, 1,2-Dideoxy-1-[4-(3,4-difluorophenyl)-1H-1,2,3-triazol-1-yl]-β-D-galactoheptulose] | 860 ± 150 | 0.7 |  | 610 ± 160 |  |  | 
13 | OC[C@H]1O[C@H](Cn2cc(-c3ccccc3F)nn2)[C@H](O)[C@@H](O)[C@H]1O [1d, 1,2-Dideoxy-1-[4-(2-fluorophenyl)-1H-1,2,3-triazol-1-yl]-β-D-galactoheptulose] | 390 ± 38 | 1.3 |  | 500 ± 23 |  |  | 
14 | OC[C@H]1O[C@H](Cn2cc(-c3ccc(F)cc3F)nn2)[C@H](O)[C@@H](O)[C@H]1O [1g, 1,2-Dideoxy-1-[4-(2,4-difluorophenyl)-1H-1,2,3-triazol-1-yl]-β-D-galactoheptulose] | 1100 ± 16 | 0.4 |  | 490 ± 55 |  |  | 
15 | OC[C@H]1O[C@H](Cn2cc(-c3ccc(F)cc3)nn2)[C@H](O)[C@@H](O)[C@H]1O [1b, 1,2-Dideoxy-1-[4-(4-fluorophenyl)-1H-1,2,3-triazol-1-yl]-β-D-galactoheptulose] | 170 ± 2 | 4 and 4.2 |  | 710 ± 36 |  |  | 
